# Like-named read-outs stand apart in the source and are kept apart here.
# Legend:
# [1] = test system: Human embryonic stem cell H9 lines carrying MYH6-mCherry reporters; experiment: hESC cardiogenesis assay; format: cell-based; conditions: for induction of cardiogenesis (class in words): dose-response behaviour
# [2] = test system: HEK293T cells
# [3] = test system: Human embryonic stem cell H9 lines carrying MYH6-mCherry reporters; conditions: cited from earlier work
# [4] = test system: β-catenin-dependent canonical Wnt pathway; experiment: Wnt inhibition assay; format: cell-based, human; conditions: for IC50: Wnt inhibition; for fold less potent in Wnt inhibition: compared with the well-tolerated parent (9/1)
# [5] = Homo sapiens, HEK-293T, HEK293T cells
Compound,induction of cardiogenesis (class in words) ([1]; hESCs),also measured
"O=C(Nc1cccc2cccnc12)c1ccc(N2C(=O)[C@@H]3[C@H](C2=O)[C@@H]2C=C[C@H]3C2)cc1 [Compound 1, reference compound]",dose-dependent induction of cardiogenesis functional activity,cell toxicity ([2]; human): not toxic to HEK293T cells
Oc1nc(-c2ccc(C(F)(F)F)cc2)nc2c1CSCC2 [Compound 2],,fold less potent than 1 and 3 (cardiogenesis) ([3]; hESCs): about 1.5 fold; maximum efficacious concentration for cardiogenesis ([3]; hESCs): 2 µM; cell toxicity [2]: did not induce cell toxicity
Cc1ccc2nc(NC(=O)CSc3nc4c(c(=O)n3-c3ccc(F)cc3)SCC4)sc2c1 [Compound 3],,maximum efficacious concentration for cardiogenesis ([3]; hESCs): 2.5 µM
COc1ccc(/C=C2/SC(=S)N(CCCC(=O)O)C2=O)cc1OC [Compound 4],,cardiogenic activity (in words) ([3]; at 50 μM): weakly cardiogenic
"O=C(Nc1cccc2cccnc12)c1ccc(N2C(=O)[C@@H]3[C@@H]4CC[C@@H](C4)[C@@H]3C2=O)cc1 [Compound 9, 4-(cis-endo-1,3-Dioxooctahydro-2H-4,7-methanoisoindol-2-yl)-N-(quinolin-8-yl)benzamide]",dose-dependent induction of cardiogenesis functional activity,
"O=C1[C@@H]2[C@@H]3CC[C@@H](C3)[C@@H]2C(=O)N1[C@H]1CC[C@H](C(=O)Nc2cccc3cccnc23)CC1 [Compound 10, 4-(cis-endo-1,3-Dioxooctahydro-2H-4,7-methanoisoindol-2-yl)-N-(quinolin-8-yl)-trans-cyclohexyl carboxamide]",potent stimulators of cardiogenesis,"Emax ([1]; Homo sapiens, Embryonic stem cell, read-out: % cardiogenesis): 145%"
"O=C1[C@@H]2[C@@H]3CC[C@@H](C3)[C@@H]2C(=O)N1[C@H]1CC[C@@H](C(=O)Nc2cccc3cccnc23)CC1 [Compound 11, 4-(cis-endo-1,3-Dioxooctahydro-2H-4,7-methanoisoindol-2-yl)-N-(quinolin-8-yl)-cis-cyclohexyl carboxamide]",dose-dependent induction of cardiogenesis functional activity,
"O=C(Nc1cccc2ccccc12)c1ccc(N2C(=O)[C@@H]3[C@@H]4CC[C@@H](C4)[C@@H]3C2=O)cc1 [Compound 12, 4-(cis-endo-1,3-Dioxooctahydro-2H-4,7-methanoisoindol-2-yl)-N-(naphtalen-1-yl) benzamide]",functionally inactive as inducers of cardiogenesis,
"O=C1[C@@H]2[C@@H]3CC[C@@H](C3)[C@@H]2C(=O)N1[C@H]1CC[C@H](C(=O)Nc2nccc3ccccc23)CC1 [Compound 13, 4-(cis-endo-1,3-Dioxooctahydro-2H-4,7-methanoisoindol-2-yl)-N-(isoquinolin-1-yl)-trans-cyclohexylcarboxamide]",dose-dependent induction of cardiogenesis functional activity,
"O=C1[C@@H]2[C@@H]3CC[C@@H](C3)[C@@H]2C(=O)N1[C@H]1CC[C@H](C(=O)Nc2cncc3ccccc23)CC1 [Compound 14, 4-(cis-endo-1,3-Dioxooctahydro-2H-4,7-methanoisoindol-2-yl)-N-(isoquinolin-4-yl)-trans-cyclohexylcarboxamide]",dose-dependent induction of cardiogenesis functional activity,
"O=C1[C@@H]2[C@@H]3CC[C@@H](C3)[C@@H]2C(=O)N1[C@H]1CC[C@H](C(=O)Nc2cccc3ccncc23)CC1 [Compound 18, 4-(cis-endo-1,3-Dioxooctahydro-2H-4,7-methanoisoindol-2-yl)-N-(isoquinolin-8-yl)-trans-cyclohexylcarboxamide]",dose-dependent induction of cardiogenesis functional activity,"Z score at 625 nM ([1]; cardiogenesis, relative to DMSO control, 625 nM): negative"
COC(=O)c1ccccc1NC(=O)[C@H]1CC[C@H](N2C(=O)[C@@H]3[C@@H]4CC[C@@H](C4)[C@@H]3C2=O)CC1 [Compound 27],dose-dependent induction of cardiogenesis functional activity,
"O=C1CCCc2cccc(NC(=O)[C@H]3CC[C@H](N4C(=O)[C@@H]5[C@@H]6CC[C@@H](C6)[C@@H]5C4=O)CC3)c21 [Compound 29, 4-(cis-endo-(1,3-Dioxooctahydro-2H-4,7-methanoisoindol-2-yl))-N-(8-oxo-5,6,7,8-tetrahydronaphthalen-1-yl)-trans-cyclohexylcarboxamide]",potent stimulators of cardiogenesis,concentration giving maximum percent cardiogenesis ([1]; hESCs): 150 nM; fold greater cardiogenic potency (lower concentration) compared to 1 ([1]; ratio of concentrations for maximum cardiogenesis): 30 fold
"O=C1c2ccccc2-c2cccc(NC(=O)[C@H]3CC[C@H](N4C(=O)[C@@H]5[C@@H]6CC[C@@H](C6)[C@@H]5C4=O)CC3)c21 [Compound 30, 4-(cis-endo-(1,3-Dioxooctahydro-2H-4,7-methanoisoindol-2-yl))-N-(9H-fluoren-9-on-1-yl)-trans-cyclohexylcarboxamide]",dose-dependent induction of cardiogenesis functional activity,
"O=C1[C@@H]2[C@@H]3CC[C@@H](C3)[C@@H]2C(=O)N1[C@H]1CC[C@H](C(=O)Nc2ccccn2)CC1 [Compound 31, 4-(cis-endo-(1,3-Dioxooctahydro-2H-4,7-methanoisoindol-2-yl))-N-(pyridin-2-yl)-trans-cyclohexyl carboxamide]",functionally inactive as inducers of cardiogenesis,"IC50 [4, 5]: ~100 nM"
"O=C1[C@@H]2[C@@H]3CC[C@@H](C3)[C@@H]2C(=O)N1[C@H]1CC[C@H](C(=O)Nc2ccncc2)CC1 [Compound 33, 4-(cis-endo-(1,3-Dioxooctahydro-2H-4,7-methanoisoindol-2-yl))-N-(pyridin-4-yl)-trans-cyclohexyl carboxamide]",functionally inactive as inducers of cardiogenesis,"IC50 [4, 5]: ~100 nM"
"CC(=O)c1ncccc1NC(=O)[C@H]1CC[C@H](N2C(=O)[C@@H]3[C@@H]4CC[C@@H](C4)[C@@H]3C2=O)CC1 [Compound 34, 4-(cis-endo-(1,3-Dioxooctahydro-2H-4,7-methanoisoindol-2-yl))-N-(2-acetyl-pyridin-3-yl)-trans-cyclohexylcarboxamide]",potent stimulators of cardiogenesis,
"CC(=O)c1ccc(NC(=O)[C@H]2CC[C@H](N3C(=O)[C@@H]4[C@@H]5CC[C@@H](C5)[C@@H]4C3=O)CC2)cn1 [Compound 35, 4-(cis-endo-(1,3-Dioxooctahydro-2H-4,7-methanoisoindol-2-yl))-N-(6-acetyl-pyridin-3-yl)-trans-cyclohexylcarboxamide]",functionally inactive as inducers of cardiogenesis,
"O=C(Nc1cccc2cccnc12)c1ccc(N2C(=O)[C@@H]3[C@H](C2=O)[C@@H]2C=C[C@H]3CC2)cc1 [Compound 36, 4-cis-endo-(3a,4,7,7a-Tetrahydro-1H-4,7-ethanoisoindole-1,3(2H)-dion-2-yl)-N-(quinolin-8-yl) benzamide]",,fold less potent in Wnt inhibition [4]: > 10 fold
"O=C(Nc1cccc2cccnc12)c1ccc(N2C(=O)[C@@H]3[C@H]4CC[C@H](CC4)[C@@H]3C2=O)cc1 [Compound 37, 4-cis-endo-(Hexahydro-1H-4,7-ethanoisoindole-1,3(2H)-dion-2-yl)-N-(quinolin-8-yl) benzamide]",functionally inactive as inducers of cardiogenesis,"IC50 [4, 5]: > 200 nM; fold less potent in Wnt inhibition [4]: > 10 fold"
"O=C(Nc1cccc2cccnc12)c1ccc(N2C(=O)C3C(C2=O)[C@H]2CC[C@@H]3O2)cc1 (stereo partly shown) [Compound 39, 4-(Hexahydro-1H-4,7-epoxyisoindole-1,3(2H)-dion-2-yl)-N-(quinolin-8-yl)benzamide]",functionally inactive as inducers of cardiogenesis,fold less potent in Wnt inhibition [4]: > 10 fold
"COc1cc(Br)ccc1NC(=O)[C@H]1CC[C@H](N2C(=O)[C@@H]3[C@@H]4CC[C@@H](C4)[C@@H]3C2=O)CC1 [Compound 53, 4-(cis-endo-1,3-Dioxooctahydro-2H-4,7-methanoisoindol-2-yl)-N-(4-bromo-2-methoxyphenyl)-trans-cyclohexylcarboxamide]",dose-dependent induction of cardiogenesis functional activity,
"O=C1[C@@H]2[C@@H]3CC[C@@H](C3)[C@@H]2C(=O)N1[C@H]1CC[C@H](C(=O)Nc2cncc(O)c2)CC1 [Compound 54, 4-(cis-endo-1,3-Dioxooctahydro-2H-4,7-methanoisoindol-2-yl)-N-(5-hydroxyl-pyridin-3-yl)-trans-cyclohexylcarboxamide]",dose-dependent induction of cardiogenesis functional activity,
"O=C1[C@@H]2[C@@H]3CC[C@@H](C3)[C@@H]2C(=O)N1[C@H]1CC[C@H](C(=O)Nc2cccnc2Cl)CC1 [Compound 55, 4-(cis-endo-1,3-Dioxooctahydro-2H-4,7-methanoisoindol-2-yl)-N-(2-chloropyridin-3-yl)-trans-cyclohexylcarboxamide]",dose-dependent induction of cardiogenesis functional activity,
"CC(=O)c1ccccc1NC(=O)[C@H]1CC[C@@H](N2C(=O)[C@@H]3[C@@H]4CC[C@@H](C4)[C@@H]3C2=O)CC1 [Compound 56, 4-(cis-endo-1,3-Dioxooctahydro-2H-4,7-methanoisoindol-2-yl)-N-(2-acetylphenyl)-cis-cyclohexyl carboxamide]",dose-dependent induction of cardiogenesis functional activity,
"N-[4-((3aR,4S,7R,7aS)-1,3,3a,4,7,7a-Hexahydro-1,3-dioxo-4,7-methano-2H-isoindol-2-yl)phenyl]-quinoline-8-carboxamide [Compound 52]",functionally inactive as inducers of cardiogenesis,"% inhibition (1 μM) ([4]; Wnt inhibition at 1 μM, HEK293T cells): 91 ± 1%; IC50 ([4]; HEK293T cells): 119 ± 9 nM"

# — publication PMC3335202 (Journal of Medicinal Chemistry, 2012)
